Results as given in ChEMBL document CHEMBL4270534, “Novel carbazole-triazole conjugates as DNA-targeting membrane active potentiators against clinical isolated fungi” (Eur J Med Chem, 2018).
Values after ≈ are worked out from the molar mass of the structure shown.

Experiments:
Format in all cases: functional
Candida albicans [1] = assay: Antifungal activity against Candida albicans after 24 hrs by two-fold broth microdilution assay
Candida tropicalis [2] = assay: Antifungal activity against Candida tropicalis after 24 hrs by two-fold broth microdilution assay
Aspergillus fumigatus [3] = assay: Antifungal activity against Aspergillus fumigatus after 24 hrs by two-fold broth microdilution assay
Candida albicans [4] = assay: Antifungal activity against Candida albicans ATCC 90023 after 24 hrs by two-fold broth microdilution assay; settings: ATCC 90023, 24 h
Candida parapsilosis [5] = assay: Antifungal activity against Candida parapsilosis ATCC 22019 after 24 hrs by two-fold broth microdilution assay; settings: Lodderomyces parapsilosis, ATCC 22019, 24 h
Staphylococcus aureus [6] = assay: Antibacterial activity against Staphylococcus aureus after 24 hrs by micro broth dilution method
Staphylococcus aureus [7] = assay: Antibacterial activity against methicillin-resistant Staphylococcus aureus after 24 hrs by micro broth dilution method
Enterococcus faecalis = assay: Antibacterial activity against Enterococcus faecalis after 24 hrs by micro broth dilution method
Staphylococcus aureus [8] = assay: Antibacterial activity against Staphylococcus aureus ATCC 25923 after 24 hrs by micro broth dilution method; settings: ATCC 25923, 24 h
Staphylococcus aureus [9] = assay: Antibacterial activity against Staphylococcus aureus ATCC 29213 after 24 hrs by micro broth dilution method; settings: ATCC 29213, 24 h
Klebsiella pneumoniae = assay: Antibacterial activity against Klebsiella pneumoniae after 24 hrs by micro broth dilution method
Escherichia coli [10] = assay: Antibacterial activity against Escherichia coli after 24 hrs by micro broth dilution method
Acinetobacter baumannii = assay: Antibacterial activity against Acinetobacter baumannii after 24 hrs by micro broth dilution method
Pseudomonas aeruginosa [11] = assay: Antibacterial activity against Pseudomonas aeruginosa after 24 hrs by micro broth dilution method
Pseudomonas aeruginosa [12] = assay: Antibacterial activity against Pseudomonas aeruginosa ATCC 27853 after 24 hrs by micro broth dilution method; settings: ATCC 27853, 24 h
Escherichia coli [13] = assay: Antibacterial activity against Escherichia coli ATCC 25922 after 24 hrs by micro broth dilution method; settings: ATCC 25922, 24 h
Candida albicans [14] = assay: Fungicidal activity against Candida albicans incubated for 24 hrs followed by plating onto tryptic soy agar medium and measured after 24 hrs by broth microdilution method
Candida tropicalis [15] = assay: Fungicidal activity against Candida tropicalis incubated for 24 hrs followed by plating onto tryptic soy agar medium and measured after 24 hrs by broth microdilution method
Candida parapsilosis [16] = assay: Fungicidal activity against Candida parapsilosis ATCC 22019 incubated for 24 hrs followed by plating onto tryptic soy agar medium and measured after 24 hrs by broth microdilution method; settings: Lodderomyces parapsilosis, ATCC 22019, 24 h
Candida albicans [17] = assay: Ratio of MFC to MIC for Candida albicans
Candida tropicalis [18] = assay: Ratio of MFC to MIC for Candida tropicalis
Candida parapsilosis [19] = assay: Ratio of MFC to MIC for Candida parapsilosis ATCC 22019
Candida albicans [20] = assay: Synergistic antifungal activity against Candida albicans after 18 hrs in presence of fluconazole by checkerboard assay
Candida tropicalis [21] = assay: Synergistic antifungal activity against Candida tropicalis after 18 hrs in presence of fluconazole by checkerboard assay
Aspergillus fumigatus [22] = assay: Synergistic antifungal activity against Aspergillus fumigatus after 18 hrs in presence of fluconazole by checkerboard assay
Candida albicans [23] = assay: Synergistic antifungal activity against Candida albicans assessed as FIC index after 18 hrs in presence of fluconazole by checkerboard assay
Candida tropicalis [24] = assay: Synergistic antifungal activity against Candida tropicalis assessed as FIC index after 18 hrs in presence of fluconazole by checkerboard assay
Aspergillus fumigatus [25] = assay: Synergistic antifungal activity against Aspergillus fumigatus assessed as FIC index after 18 hrs in presence of fluconazole by checkerboard assay
Candida albicans [26] = assay: Antifungal activity against Candida albicans assessed as ratio of MIC after and before 10 serial passages

| SMILES | MIC (Candida albicans [1]) | MIC (Candida tropicalis [2]) | MIC (Aspergillus fumigatus [3]) | MIC (Candida albicans [4]) | MIC (Candida parapsilosis [5]) | MIC (Staphylococcus aureus [6]) | MIC (Staphylococcus aureus [7]) | MIC (Enterococcus faecalis) | MIC (Staphylococcus aureus [8]) | MIC (Staphylococcus aureus [9]) | MIC (Klebsiella pneumoniae) | MIC (Escherichia coli [10]) | MIC (Acinetobacter baumannii) | MIC (Pseudomonas aeruginosa [11]) | MIC (Pseudomonas aeruginosa [12]) | MIC (Escherichia coli [13]) | MFC (Candida albicans [14]) | MFC (Candida tropicalis [15]) | MFC (Candida parapsilosis [16]) | Ratio (Candida albicans [17]) | also measured |
| --- | --- | --- | --- | --- | --- | --- | --- | --- | --- | --- | --- | --- | --- | --- | --- | --- | --- | --- | --- | --- | --- |
| OC(Cn1cncn1)(Cn1c2ccc(Br)cc2c2cc(Br)ccc21)c1ccc(Cl)cc1 (stereo unspecified) | 8 µg/mL (≈ 14.3 µM) | 32 µg/mL (≈ 57.1 µM) | 64 µg/mL (≈ 114 µM) | 64 µg/mL (≈ 114 µM) | 32 µg/mL (≈ 57.1 µM) | 32 µg/mL (≈ 57.1 µM) | 16 µg/mL (≈ 28.5 µM) | 16 µg/mL (≈ 28.5 µM) | 32 µg/mL (≈ 57.1 µM) | 16 µg/mL (≈ 28.5 µM) | 256 µg/mL (≈ 457 µM) | 128 µg/mL (≈ 228 µM) | 256 µg/mL (≈ 457 µM) | 256 µg/mL (≈ 457 µM) | 16 µg/mL (≈ 28.5 µM) | 16 µg/mL (≈ 28.5 µM) | – | – | – | – | – |
| CC(C)(C)c1ccc2c(c1)c1cc(C(C)(C)C)ccc1n2CC(O)(Cn1cncn1)c1ccc(F)cc1F (stereo unspecified) | 64 µg/mL (≈ 124 µM) | 64 µg/mL (≈ 124 µM) | 256 µg/mL (≈ 496 µM) | 128 µg/mL (≈ 248 µM) | 64 µg/mL (≈ 124 µM) | 256 µg/mL (≈ 496 µM) | 64 µg/mL (≈ 124 µM) | 128 µg/mL (≈ 248 µM) | 32 µg/mL (≈ 61.9 µM) | 256 µg/mL (≈ 496 µM) | 32 µg/mL (≈ 61.9 µM) | 128 µg/mL (≈ 248 µM) | 256 µg/mL (≈ 496 µM) | 128 µg/mL (≈ 248 µM) | 64 µg/mL (≈ 124 µM) | 128 µg/mL (≈ 248 µM) | – | – | – | – | – |
| OC(Cn1cncn1)(Cn1c2ccccc2c2ccccc21)c1ccc(F)cc1F (stereo unspecified) | 32 µg/mL (≈ 79.1 µM) | 8 µg/mL (≈ 19.8 µM) | 128 µg/mL (≈ 317 µM) | 16 µg/mL (≈ 39.6 µM) | 8 µg/mL (≈ 19.8 µM) | 64 µg/mL (≈ 158 µM) | 64 µg/mL (≈ 158 µM) | 16 µg/mL (≈ 39.6 µM) | 32 µg/mL (≈ 79.1 µM) | 32 µg/mL (≈ 79.1 µM) | 64 µg/mL (≈ 158 µM) | 128 µg/mL (≈ 317 µM) | 128 µg/mL (≈ 317 µM) | 128 µg/mL (≈ 317 µM) | 256 µg/mL (≈ 633 µM) | 128 µg/mL (≈ 317 µM) | 32 µg/mL (≈ 79.1 µM) | 16 µg/mL (≈ 39.6 µM) | 32 µg/mL (≈ 79.1 µM) | 1 | Ratio (Candida tropicalis [18]): 2; Ratio (Candida parapsilosis [19]): 4; MIC (Candida albicans [20]): 2 µg/mL; MIC (Candida tropicalis [21]): 4 µg/mL; MIC (Aspergillus fumigatus [22]): 32 µg/mL; fractional inhibitory concentration index (FICI) (Candida albicans [23]): 0.56; fractional inhibitory concentration index (FICI) (Candida tropicalis [24]): 1; fractional inhibitory concentration index (FICI) (Aspergillus fumigatus [25]): 0.37 |
| OC(Cn1cncn1)(Cn1c2ccccc2c2ccc(Br)cc21)c1ccc(F)cc1F (stereo unspecified) | 16 µg/mL (≈ 33.1 µM) | 4 µg/mL (≈ 8.28 µM) | 64 µg/mL (≈ 132 µM) | 16 µg/mL (≈ 33.1 µM) | 16 µg/mL (≈ 33.1 µM) | 64 µg/mL (≈ 132 µM) | 16 µg/mL (≈ 33.1 µM) | 32 µg/mL (≈ 66.2 µM) | 16 µg/mL (≈ 33.1 µM) | 32 µg/mL (≈ 66.2 µM) | 128 µg/mL (≈ 265 µM) | 64 µg/mL (≈ 132 µM) | 64 µg/mL (≈ 132 µM) | 64 µg/mL (≈ 132 µM) | 128 µg/mL (≈ 265 µM) | 64 µg/mL (≈ 132 µM) | 16 µg/mL (≈ 33.1 µM) | 4 µg/mL (≈ 8.28 µM) | 32 µg/mL (≈ 66.2 µM) | 1 | Ratio (Candida tropicalis [18]): 1; Ratio (Candida parapsilosis [19]): 2; MIC (Candida albicans [20]): 4 µg/mL; MIC (Candida tropicalis [21]): 4 µg/mL; MIC (Aspergillus fumigatus [22]): 16 µg/mL; fractional inhibitory concentration index (FICI) (Candida albicans [23]): 1.25; fractional inhibitory concentration index (FICI) (Candida tropicalis [24]): 1.5; fractional inhibitory concentration index (FICI) (Aspergillus fumigatus [25]): 0.32 |
| OC(Cn1cncn1)(Cn1cncn1)c1ccc(F)cc1F [FLUCONAZOLE] | 4 µg/mL (≈ 13.1 µM) | 8 µg/mL (≈ 26.1 µM) | 256 µg/mL (≈ 836 µM) | 2 µg/mL (≈ 6.53 µM) | 4 µg/mL (≈ 13.1 µM) | – | – | – | – | – | – | – | – | – | – | – | – | – | – | – | Ratio (Candida albicans [26]): 8 |
| OC(Cn1cncn1)(Cn1c2ccc(Br)cc2c2cc(Br)ccc21)c1ccc(Cl)c(Cl)c1 (stereo unspecified) | 4 µg/mL (≈ 6.72 µM) | 8 µg/mL (≈ 13.4 µM) | 32 µg/mL (≈ 53.8 µM) | 32 µg/mL (≈ 53.8 µM) | 16 µg/mL (≈ 26.9 µM) | 64 µg/mL (≈ 108 µM) | 8 µg/mL (≈ 13.4 µM) | 16 µg/mL (≈ 26.9 µM) | 16 µg/mL (≈ 26.9 µM) | 32 µg/mL (≈ 53.8 µM) | 128 µg/mL (≈ 215 µM) | 64 µg/mL (≈ 108 µM) | 128 µg/mL (≈ 215 µM) | 64 µg/mL (≈ 108 µM) | 32 µg/mL (≈ 53.8 µM) | 32 µg/mL (≈ 53.8 µM) | 16 µg/mL (≈ 26.9 µM) | 8 µg/mL (≈ 13.4 µM) | 32 µg/mL (≈ 53.8 µM) | 4 | Ratio (Candida tropicalis [18]): 1; Ratio (Candida parapsilosis [19]): 2 |
